Consider 31 molecules from ChEMBL document CHEMBL2010672, “Pyridyl aminothiazoles as potent Chk1 inhibitors: optimization of cellular activity” (Bioorg Med Chem Lett, 2012).

The target of assay [1] is T1, Serine/threonine-protein kinase Chk1 (Homo sapiens, UniProt O14757).
T1 sequence (O14757 whole entry): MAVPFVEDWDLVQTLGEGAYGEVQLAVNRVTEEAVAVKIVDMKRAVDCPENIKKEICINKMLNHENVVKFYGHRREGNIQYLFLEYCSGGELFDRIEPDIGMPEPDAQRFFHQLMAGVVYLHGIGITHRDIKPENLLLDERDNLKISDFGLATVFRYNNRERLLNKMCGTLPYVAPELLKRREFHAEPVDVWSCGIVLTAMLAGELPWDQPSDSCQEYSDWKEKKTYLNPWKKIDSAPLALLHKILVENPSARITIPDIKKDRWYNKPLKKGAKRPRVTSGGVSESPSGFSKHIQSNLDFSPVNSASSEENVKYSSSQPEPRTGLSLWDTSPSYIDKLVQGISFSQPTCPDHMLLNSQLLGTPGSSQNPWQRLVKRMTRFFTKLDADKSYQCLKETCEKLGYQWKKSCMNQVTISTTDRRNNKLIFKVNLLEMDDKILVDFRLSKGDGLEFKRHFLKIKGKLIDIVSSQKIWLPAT
As to the kind of experiment: Inhibition of CHK1 by time resolved fluorescence assay.

Assay [2] deals with Cyclin-dependent kinase 7 (Homo sapiens, UniProt P50613). As to the kind of experiment: Inhibition of CDK7.
Sequence of Cyclin-dependent kinase 7 (P50613 whole entry): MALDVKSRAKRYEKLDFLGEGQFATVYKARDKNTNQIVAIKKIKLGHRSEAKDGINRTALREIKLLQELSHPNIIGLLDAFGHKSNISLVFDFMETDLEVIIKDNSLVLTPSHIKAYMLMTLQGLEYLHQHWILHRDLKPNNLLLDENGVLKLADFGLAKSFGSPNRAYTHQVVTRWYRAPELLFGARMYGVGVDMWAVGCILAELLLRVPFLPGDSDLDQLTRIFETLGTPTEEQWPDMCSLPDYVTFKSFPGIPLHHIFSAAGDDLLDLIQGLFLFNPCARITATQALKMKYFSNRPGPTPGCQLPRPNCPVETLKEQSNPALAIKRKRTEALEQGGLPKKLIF
Assay [3] concerns NCI-H1299. Kind of assay: Inhibition of DNA damage-induced cell cycle arrest in human H1299 cells assessed as progression into mitosis measuring mitosis specific-phosphorylation of nucleolin after 8 hrs by checkpoint escape assay. The assay is classed as functional, cell-based. Conditions: NCI-H1299, 8 h.

The IC50 is the concentration needed to halve the response being measured. For orientation: EC50 means the midpoint of the concentration-response curve. `NC(=O)c1cncc(-c2cnc(Nc3cc(N4CCOCC4)ccn3)s2)c1`: the half-maximal inhibitory concentration (IC50) in assay [1] was 10 nM; in assay [2], more than 3700 nM. The EC50 in assay [3] was more than 10000 nM.

Consider `Cc1ccc(NC(=O)c2cncc(-c3cnc(Nc4cc(N5CCOCC5)ccn4)s3)c2)s1`, for which the figures for the IC50 in assay [1] and in assay [2] were 12 nM and more than 10000 nM, respectively. In addition, the half-maximal effective concentration (EC50) in assay [3] was 920 nM.

Regarding `CS(=O)(=O)N1CCN(c2ccnc(Nc3ncc(-c4cncc(C(=O)NCCN)c4)s3)c2)CC1`, in assay [2], it took 170 nM to reach half-maximal inhibition (IC50). Further, the EC50 in assay [3] worked out at 500 nM.

Turning to `NCCNC(=O)c1cncc(-c2cnc(Nc3ncccc3Cl)s2)c1`, the results for the half-inhibitory concentration (IC50) in assay [1] and in assay [2] were 0.3 nM and 960 nM, respectively. In addition, the half-maximal effective concentration (EC50) in assay [3] amounted to 330 nM.

As for `O=C(NCC(F)(F)F)c1cncc(-c2cnc(Nc3cc(N4CCOCC4)ccn3)s2)c1`, the results for the IC50 in assay [1] and in assay [2] were 1.6 nM and 705 nM, respectively. The EC50 in assay [3] turned out to be 198 nM.

For `NCCNC(=O)c1cncc(-c2cnc(Nc3cc(N4CCC(F)CC4)ccn3)s2)c1`, the results for the IC50 in assay [1] and in assay [2] were 0.07 nM and 350 nM, respectively. The concentration for a half-maximal effect (EC50) in assay [3] was 484 nM.

Regarding `c1ncc(-c2cnc(Nc3cc(N4CCNCC4)ccn3)s2)cn1`, the IC50 in assay [1] amounted to 29 nM; in assay [2], 11000 nM. The concentration for a half-maximal effect (EC50) in assay [3] came to 1530 nM.

In the case of `NCCNC(=O)c1cncc(-c2cnc(Nc3ccccc3Cl)s2)c1`, the half-maximal inhibitory concentration (IC50) was 33 nM in assay [1] and more than 10000 nM in assay [2]. Further, the half-maximal effective concentration (EC50) in assay [3] was more than 10000 nM.

On to `NCCNC(=O)c1cccc(-c2cnc(Nc3cc(N4CCC(F)(F)CC4)ccn3)s2)c1`, for which the IC50 in assay [1] was 8 nM; in assay [2] it was 160 nM. Besides, the EC50 in assay [3] is more than 10000 nM.

`c1cncc(-c2cncc(-c3cnc(Nc4cc(N5CCOCC5)ccn4)s3)c2)c1` registered an IC50 in assay [2] of more than 10000 nM. In assay [3], the EC50 was more than 10000 nM.

`NCCNC(=O)c1cncc(-c2cnc(Nc3cc(Cl)ccn3)s2)c1`: the IC50 in assay [1] worked out at 16 nM; in assay [2] it was 940 nM. The concentration for a half-maximal effect (EC50) in assay [3] is 940 nM.

Turning to `NCCCCc1cncc(-c2cnc(Nc3cc(N4CCOCC4)ccn3)s2)c1`, the IC50 in assay [1] is 12 nM; in assay [2], more than 10000 nM.

`c1cn(-c2cncc(-c3cnc(Nc4cc(N5CCOCC5)ccn4)s3)c2)nn1`: the 50% inhibitory concentration (IC50) in assay [1] is 9 nM; in assay [2], more than 10000 nM. In addition, the 50% effective concentration (EC50) in assay [3] was determined as 1390 nM.

In the case of `CC(=O)N1CCN(c2ccnc(Nc3ncc(-c4cncc(C(=O)NCCN)c4)s3)c2)CC1`, half-maximal inhibition in assay [2] (IC50) was put at 210 nM. Also, the concentration for a half-maximal effect (EC50) in assay [3] came to 1210 nM.

Turning to `c1cncc(-c2cncc(-c3cnc(Nc4cc(N5CCNCC5)ccn4)s3)c2)c1`, the IC50 is 5 nM in assay [1] and more than 10000 nM in assay [2]. For the same molecule, the EC50 in assay [3] is 570 nM.

As to `O=C(O)c1cncc(-c2cnc(Nc3cc(N4CCNCC4)ccn3)s2)c1`, the results for the IC50 in assay [1] and in assay [2] were 16 nM and more than 10000 nM, respectively. Besides, the half-maximal effective concentration (EC50) in assay [3] was more than 10000 nM.

As to `CS(=O)(=O)N1CCN(c2ccnc(Nc3ncc(-c4cncc(C(=O)NCC(F)(F)F)c4)s3)c2)CC1`, the IC50 in assay [1] stood at 1.7 nM; in assay [2], 2100 nM. The EC50 in assay [3] was found to be 106 nM.

Regarding `O=C(NCCO)c1cncc(-c2cnc(Nc3cc(N4CCOCC4)ccn3)s2)c1`, the figures for the IC50 in assay [1] and in assay [2] were 15 nM and more than 10000 nM, respectively. For the same molecule, the EC50 in assay [3] is more than 10000 nM.

For `Cc1cccnc1Nc1ncc(-c2cncc(C(=O)NCCN)c2)s1`, the 50% inhibitory concentration (IC50) in assay [1] stood at 0.4 nM; in assay [2] it was 910 nM. The EC50 in assay [3] was 430 nM.

On to `c1cc(Nc2ncc(-c3cncnc3)s2)nc(N2CCNCC2)c1`, for which the figures for the IC50 in assay [1] and in assay [2] were 160 nM and 410 nM, respectively.

`O=C(CN1CCN(c2ccnc(Nc3ncc(-c4cccnc4)s3)c2)CC1)N1CCOCC1`: in assay [2], the 50% inhibitory concentration (IC50) was found to be 1760 nM. In assay [3], the EC50 is more than 50000 nM.

`Cn1cc(-c2cncc(-c3cnc(Nc4cc(N5CCNCC5)ccn4)s3)c2)cn1`: the IC50 in assay [1] was 6 nM; in assay [2], more than 2000 nM. Besides, in assay [3], the EC50 was found to be 1330 nM.

Regarding `c1ccc(-c2cnc(Nc3cccc(N4CCNCC4)n3)s2)cc1`, the IC50 in assay [1] was found to be 33 nM; in assay [2] it was 26 nM. The EC50 in assay [3] was more than 16700 nM.

For `Brc1cncc(-c2cnc(Nc3cc(N4CCNCC4)ccn3)s2)c1`, the results for the IC50 in assay [1] and in assay [2] were 21 nM and 480 nM, respectively. In addition, the EC50 in assay [3] is more than 50000 nM.

Consider `NCCNC(=O)c1cncc(-c2cnc(Nc3cc(N4CCOCC4)ccn3)s2)c1`, for which, in assay [2], the concentration for half-maximal inhibition (IC50) is 340 nM. The EC50 in assay [3] was 460 nM.

For `CNC(=O)c1cncc(-c2cnc(Nc3cc(N4CCOCC4)ccn3)s2)c1`, the IC50 in assay [1] is 7 nM; in assay [2] it was more than 10000 nM. Also, in assay [3], the EC50 came to 300 nM.

In assay [2], `c1cc(N2CCNCC2)cc(Nc2ncc(-c3cncc(-c4cn[nH]c4)c3)s2)n1` showed an IC50 of 260 nM. Moreover, in assay [3], the EC50 was 5530 nM.

Molecule `c1ncc(-c2cncc(-c3cnc(Nc4cc(N5CCOCC5)ccn4)s3)c2)cn1` showed an IC50 in assay [2] of more than 10000 nM. In addition, the 50% effective concentration (EC50) in assay [3] is more than 10000 nM.

On to `Cc1ccc(-c2cnc(Nc3cccc(N4CCNCC4)n3)s2)cn1`, for which the half-inhibitory concentration (IC50) in assay [1] was determined as 38 nM; in assay [2] it was 1000 nM. In assay [3], the EC50 is more than 16700 nM.

For `Cc1ccc(-c2cnc(Nc3cc(N4CCNCC4)ccn3)s2)cn1`, the IC50 in assay [2] was more than 20000 nM. In assay [3], the EC50 was 1370 nM.

On to `Cc1ccc(-c2cnc(Nc3cccc(NCCCN)n3)s2)cn1`, for which the IC50 in assay [1] came out at 27 nM; in assay [2], 870 nM. In addition, in assay [3], the EC50 was more than 16700 nM.
